According to patent publication US20230406831A1, “COMPOUNDS AND METHODS OF INHIBITING BACTERIAL CHAPERONIN SYSTEMS” (THE TRUSTEES OF INDIANA UNIVERSITY, priority 2020, published 2023):
Like-named read-outs stand apart in the source and are kept apart here.

What was measured:
[1] = biological target: T1, native MDH (Sus scrofa, UniProt P00346); test: Native MDH enzymatic activity counter-screen; assay type: biochemical, pig; settings: compounds added after refolding and EDTA quench, read-out: Biochemical Assay IC50 Native MDH Activity
T1 construct: soluble pig heart MDH from Roche, product #10127248001; purchased Roche 10127248001; host or cells: pig heart
T1 sequence (P00346 25-338): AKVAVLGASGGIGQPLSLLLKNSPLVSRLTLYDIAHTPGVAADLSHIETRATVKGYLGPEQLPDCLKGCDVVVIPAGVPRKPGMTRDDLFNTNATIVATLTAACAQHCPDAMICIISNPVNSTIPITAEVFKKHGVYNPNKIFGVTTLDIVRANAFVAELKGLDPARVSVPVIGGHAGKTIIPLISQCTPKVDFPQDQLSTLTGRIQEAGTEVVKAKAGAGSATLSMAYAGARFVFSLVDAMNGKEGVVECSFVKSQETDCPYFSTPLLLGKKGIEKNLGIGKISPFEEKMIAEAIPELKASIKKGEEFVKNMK
Protocol: Counter-screening compounds for inhibition of native MDH enzymatic activity.
Reagent Preparations & Assay Protocol: This assay was performed as described above for the GroEL/ES-dMDH refolding assay; however, the assay protocol differed in the sequence of compound addition to the assay plates. The refolding reactions were allowed to proceed for 45 min at 37° C. in the absence of test compounds (complete refolding of MDH occurs), then quenched with the EDTA stock. Compounds were then pin-transferred into the plates after the EDTA quenching step; thus, compounds effects are only possible by inhibiting the fully-refolded MDH reporter substrate. Next enzymatic activity of the refolded MDH was initiated by addition of 20 μL MDH enzymatic assay stock (20 mM sodium mesoxalate and 2.4 mM NADH in reaction buffer, 50 mM Tris pH 7.4, 50 mM KCl, 1 mM DTT), and followed by measuring the NADH absorbance in each well at 340 nm using a Molecular Devices SpectraMax Plus384 microplate reader
A340 nm measurements were recorded at 0.5 minutes (start point) and at successive time points until the amount of NADH consumed reached ˜90% (end point, generally between 20-35 minutes). Compounds were tested in 8-point, 3-fold dilution series (62.5 μM to 29 nM during the reporter reaction) in clear, flat-bottom 384-well microtiter plates.
DMSO was used as a negative control, and previously discovered native MDH inhibitors were used as positive controls. IC50 values for the test compounds were obtained by plotting the % inhibition results in GraphPad Prism 6 and analyzing by non-linear regression using the log (inhibitor) vs. response (variable slope) equation. Results presented represent the averages of IC50 values obtained from at least quadriplicate (duplicate of duplicate) replicates.

[2] = HEK 293 kidney cell viability / cytotoxicity assay (Alamar Blue); assay type: cell-based; settings: human, 48 h incubation, Alamar Blue, read-out: HEK 293 Kidney Cell Viability CC50

Structure (SMILES) | IC50 ([1]; Table 3) [µM] | CC50 at 48 h ([2]; HEK 293 kidney cells, Table 3) [µM] | IC50 ([1]; Table 2) [µM] | CC50 at 48 h ([2]; HEK 293 kidney cells, Table 2) [µM] | CC50 at 48 h ([2]; Table 2) [µM]
O=C(Nc1ccccc1)c1cc(Cl)ccc1O [Compound 117, 5-chloro-2-hydroxy-N-phenylbenzamide] | > 63 | 13 |  |  | 
COC(=O)c1ccc(NC(=O)c2cc(Cl)ccc2OC)cc1 [Compound 106, methyl 4-(5-chloro-2-methoxybenzamido)benzoate] | > 63 | 24 |  |  | 
COc1ccc(Cl)cc1C(=O)Nc1ccc(O)cc1 [Compound 114, 5-chloro-N-(4-hydroxyphenyl)-2-methoxybenzamide] | > 63 | > 100 |  |  | 
COc1ccc(Cl)cc1C(=O)Nc1ccc(Oc2ccc(Cl)cc2)c(Cl)c1 [Compound 86, 5-chloro-N-(3-chloro-4-(4-chlorophenoxy)phenyl)-2-methoxybenzamide] | > 63 | > 100 |  |  | 
Cc1cc(C(C#N)c2ccc(Cl)cc2)c(Cl)cc1NC(=O)c1ccc(Cl)cc1 (stereo not drawn) [Compound 78, 4-chloro-N-(5-chloro-4-((4-chlorophenyl)(cyano)methyl)-2-methylphenyl)benzamide] |  |  | > 63 | 50 | 
Cc1cc(C(C#N)c2ccc(Cl)cc2)c(Cl)cc1NC(=O)c1cccc(Br)c1 (stereo not drawn) [Compound 74, 3-bromo-N-(5-chloro-4-((4-chlorophenyl)(cyano)methyl)-2-methylphenyl)benzamide] |  |  | > 63 | > 100 | 
Cc1cc(C(C#N)c2ccc(Cl)cc2)c(Cl)cc1NC(=O)c1ccccc1N (stereo not drawn) [Compound 70, 2-amino-N-(5-chloro-4-((4-chlorophenyl)(cyano)methyl)-2-methylphenyl)benzamide] |  |  | > 63 | 32 | 
COc1ccccc1C(=O)Nc1cc(Cl)c(C(C#N)c2ccc(Cl)cc2)cc1C (stereo not drawn) [Compound 61, N-(5-chloro-4-((4-chlorophenyl)(cyano)methyl)-2-methylphenyl)-2-methoxybenzamide] |  |  | > 63 | > 100 | 
COc1c(Br)cccc1C(=O)Nc1cc(Cl)c(C(C#N)c2ccc(Cl)cc2)cc1C (stereo not drawn) [Compound 47, 3-bromo-N-(5-chloro-4-((4-chlorophenyl)(cyano)methyl)-2-methylphenyl)-2-methoxybenzamide] |  |  | > 63 |  | > 100
COc1ccc(Cl)cc1C(=O)Nc1ccc(OCc2ccccc2)cc1 [Compound 102, N-(4-(benzyloxy)phenyl)-5-chloro-2-methoxybenzamide] | > 63 | > 100 |  |  | 
COc1cccc(C(=O)Nc2cc(Cl)c(C(C#N)c3ccc(Cl)cc3)cc2C)c1 (stereo not drawn) [Compound 62, N-(5-chloro-4-((4-chlorophenyl)(cyano)methyl)-2-methylphenyl)-3-methoxybenzamide] |  |  | > 63 | 50 | 
COc1ccc(Cl)cc1C(=O)Nc1ccc(C(=O)O)cc1 [Compound 108, 4-(5-chloro-2-methoxybenzamido)benzoic acid] | > 63 | > 100 |  |  | 
Cc1cc(C(C#N)c2ccc(Cl)cc2)c(Cl)cc1NC(=O)c1cccc(Cl)c1O (stereo not drawn) [Compound 54, 3-chloro-N-(5-chloro-4-((4-chlorophenyl)(cyano)methyl)-2-methylphenyl)-2-hydroxybenzamide] |  |  | 57 |  | 88
COc1c(Br)cc(Br)cc1C(=O)Nc1cc(Cl)c(C(C#N)c2ccc(Cl)cc2)cc1C (stereo not drawn) [Compound 45, 3,5-dibromo-N-(5-chloro-4-((4-chlorophenyl)(cyano)methyl)-2-methylphenyl)-2-methoxybenzamide] |  |  | > 63 |  | 66
Cc1cc(C(C#N)c2ccc(Cl)cc2)c(Cl)cc1NC(=O)c1cccc(N)c1 (stereo not drawn) [Compound 71, 3-amino-N-(5-chloro-4-((4-chlorophenyl)(cyano)methyl)-2-methylphenyl)benzamide] |  |  | > 63 | 35 | 
COc1ccc(Cl)cc1C(=O)Nc1ccc(Sc2nc3ccccc3s2)c(Cl)c1 [Compound 94, N-(4-(benzo[d]thiazol-2-ylthio)-3-chlorophenyl)-5-chloro-2-methoxybenzamide] | > 63 | > 100 |  |  | 
Cc1cc(C(C#N)c2ccc(Cl)cc2)c(Cl)cc1NC(=O)c1ccc([N+](=O)[O-])cc1 (stereo not drawn) [Compound 69, N-(5-chloro-4-((4-chlorophenyl)(cyano)methyl)-2-methylphenyl)-4-nitrobenzamide] |  |  | > 63 | > 100 | 
O=C(Nc1ccc(Sc2nc3ccccc3s2)cc1)c1cc(Cl)ccc1O [Compound 97, N-(4-(benzo[d]thiazol-2-ylthio)phenyl)-5-chloro-2-hydroxybenzamide] | > 63 | 28 |  |  | 
COc1ccc(Cl)cc1C(=O)Nc1cc(Cl)c(C(C#N)c2ccc(Cl)cc2)cc1C (stereo not drawn) [Compound 57, 5-chloro-N-(5-chloro-4-((4-chlorophenyl)(cyano)methyl)-2-methylphenyl)-2-methoxybenzamide] | > 63 |  | > 63 |  | 28
